PubChem BioAssay (NCI)
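Briefly, cells in 96-well plates were exposed to five compound concentrations for 48 h, and endpoints were estimated by linear interpolation. TGI: total growth inhibition.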

Tests used:
Assay in all cases: DTP human tumour cell line panel, 48 h
786-0 renal = system: 786-0 renal
A549 NSCLC = system: A549 NSCLC
ACHN renal = system: ACHN renal
BT-549 breast = system: BT-549 breast
CAKI-1 renal = system: CAKI-1 renal
CCRF-CEM leukemia = system: CCRF-CEM leukemia
COLO 205 colon = system: COLO 205 colon
DU-145 prostate = system: DU-145 prostate
EKVX NSCLC = system: EKVX NSCLC
HCC-2998 colon = system: HCC-2998 colon
HCT-116 colon = system: HCT-116 colon
HCT-15 colon = system: HCT-15 colon
HL-60(TB) leukemia = system: HL-60(TB) leukemia
HOP-62 NSCLC = system: HOP-62 NSCLC
HOP-92 NSCLC = system: HOP-92 NSCLC
HS 578T breast = system: HS 578T breast
HT29 colon = system: HT29 colon
IGROV1 ovarian = system: IGROV1 ovarian
K-562 leukemia = system: K-562 leukemia
KM12 colon = system: KM12 colon
LOX IMVI melanoma = system: LOX IMVI melanoma
M14 melanoma = system: M14 melanoma
MCF7 breast = system: MCF7 breast
MDA-MB-231 breast = system: MDA-MB-231 breast
MDA-MB-435 = system: MDA-MB-435
MDA-N = system: MDA-N
MOLT-4 leukemia = system: MOLT-4 leukemia
NCI-H226 lung = system: NCI-H226 lung
NCI-H23 lung = system: NCI-H23 lung
NCI-H460 lung = system: NCI-H460 lung
NCI-H522 lung = system: NCI-H522 lung
NCI/ADR-RES ovarian = system: NCI/ADR-RES ovarian
OVCAR-3 ovarian = system: OVCAR-3 ovarian
OVCAR-8 ovarian = system: OVCAR-8 ovarian
PC-3 prostate = system: PC-3 prostate
RPMI-8226 leukemia = system: RPMI-8226 leukemia
RXF 393 renal = system: RXF 393 renal
SF-268 CNS = system: SF-268 CNS
SF-295 CNS = system: SF-295 CNS
SF-539 CNS = system: SF-539 CNS
SK-MEL-2 melanoma = system: SK-MEL-2 melanoma
SK-MEL-28 melanoma = system: SK-MEL-28 melanoma
SK-MEL-5 melanoma = system: SK-MEL-5 melanoma
SK-OV-3 ovarian = system: SK-OV-3 ovarian
SN12C renal = system: SN12C renal
SNB-19 CNS = system: SNB-19 CNS
SNB-75 CNS = system: SNB-75 CNS
SR leukemia = system: SR leukemia
SW-620 colon = system: SW-620 colon
T-47D breast = system: T-47D breast
TK-10 renal = system: TK-10 renal
U251 CNS = system: U251 CNS
UACC-257 melanoma = system: UACC-257 melanoma
UACC-62 melanoma = system: UACC-62 melanoma
UO-31 renal = system: UO-31 renal
A498 renal = system: A498 renal
MALME-3M melanoma = system: MALME-3M melanoma
OVCAR-4 ovarian = system: OVCAR-4 ovarian
OVCAR-5 ovarian = system: OVCAR-5 ovarian

CN=c1oc2ccccc2cc1C(N)=O was tested, and the TGI (786-0 renal) was greater than 100 µM, the TGI (A549 NSCLC) was greater than 100 µM and the TGI (ACHN renal) was greater than 100 µM. The TGI (BT-549 breast) was greater than 100 µM, the TGI (CAKI-1 renal) was greater than 100 µM and the TGI (CCRF-CEM leukemia) was greater than 100 µM. For the same compound, the TGI (COLO 205 colon) was greater than 100 µM, the TGI (DU-145 prostate) was greater than 100 µM and the TGI (EKVX NSCLC) was greater than 100 µM. It also gave a TGI (HCC-2998 colon) greater than 100 µM, a TGI (HCT-116 colon) greater than 100 µM and a TGI (HCT-15 colon) greater than 100 µM. For the same compound, the TGI (HL-60(TB) leukemia) was greater than 100 µM, the TGI (HOP-62 NSCLC) was greater than 100 µM and the TGI (HOP-92 NSCLC) was greater than 100 µM. It also gave a TGI (HS 578T breast) greater than 100 µM, a TGI (HT29 colon) greater than 100 µM and a TGI (IGROV1 ovarian) greater than 100 µM. It also gave a TGI (K-562 leukemia) greater than 100 µM, a TGI (KM12 colon) greater than 100 µM and a TGI (LOX IMVI melanoma) greater than 100 µM. It also gave a TGI (M14 melanoma) greater than 100 µM, a TGI (MCF7 breast) greater than 100 µM and a TGI (MDA-MB-231 breast) greater than 100 µM. It also gave a TGI (MDA-MB-435) greater than 100 µM, a TGI (MDA-N) greater than 100 µM and a TGI (MOLT-4 leukemia) greater than 100 µM. It also gave a TGI (NCI-H226 lung) greater than 100 µM, a TGI (NCI-H23 lung) greater than 100 µM and a TGI (NCI-H460 lung) greater than 100 µM. For the same compound, the TGI (NCI-H522 lung) was greater than 100 µM, the TGI (NCI/ADR-RES ovarian) was greater than 100 µM and the TGI (OVCAR-3 ovarian) was greater than 100 µM. The TGI (OVCAR-8 ovarian) was greater than 100 µM, the TGI (PC-3 prostate) was greater than 100 µM and the TGI (RPMI-8226 leukemia) was greater than 100 µM. For the same compound, the TGI (RXF 393 renal) was greater than 100 µM, the TGI (SF-268 CNS) was greater than 100 µM and the TGI (SF-295 CNS) was greater than 100 µM. The TGI (SF-539 CNS) was greater than 100 µM, the TGI (SK-MEL-2 melanoma) was greater than 100 µM and the TGI (SK-MEL-28 melanoma) was greater than 100 µM. It also gave a TGI (SK-MEL-5 melanoma) greater than 100 µM, a TGI (SK-OV-3 ovarian) greater than 100 µM and a TGI (SN12C renal) greater than 100 µM. For the same compound, the TGI (SNB-19 CNS) was greater than 100 µM, the TGI (SNB-75 CNS) was greater than 100 µM and the TGI (SR leukemia) was greater than 100 µM. It also gave a TGI (SW-620 colon) greater than 100 µM, a TGI (T-47D breast) greater than 100 µM and a TGI (TK-10 renal) greater than 100 µM. It also gave a TGI (U251 CNS) greater than 100 µM, a TGI (UACC-257 melanoma) greater than 100 µM and a TGI (UACC-62 melanoma) greater than 100 µM. For the same compound, the TGI (UO-31 renal) was greater than 100 µM.

CC(C)=CCc1c(O)c(CC2=C(O)C(C)=C(O)C(CC=C(C)C)(C(=O)C(C)C)C2=O)c(O)c(C(=O)C(C)C)c1O (configuration not stated) was tested, and the TGI (786-0 renal) was greater than 35.3 µM, the TGI (A498 renal) was greater than 38.9 µM and the TGI (A549 NSCLC) was greater than 47.7 µM. The TGI (ACHN renal) was greater than 40.5 µM, the TGI (BT-549 breast) was 36.9 µM and the TGI (CAKI-1 renal) was greater than 47.7 µM. For the same compound, the TGI (CCRF-CEM leukemia) was greater than 15.1 µM, the TGI (COLO 205 colon) was greater than 47.7 µM and the TGI (DU-145 prostate) was greater than 47.7 µM. For the same compound, the TGI (EKVX NSCLC) was greater than 44.6 µM, the TGI (HCC-2998 colon) was greater than 38.9 µM and the TGI (HCT-116 colon) was 19.8 µM. For the same compound, the TGI (HCT-15 colon) was greater than 47.7 µM, the TGI (HL-60(TB) leukemia) was greater than 47.7 µM and the TGI (HOP-62 NSCLC) was greater than 29.5 µM. For the same compound, the TGI (HOP-92 NSCLC) was 25.5 µM, the TGI (HS 578T breast) was 21.6 µM and the TGI (HT29 colon) was 12.6 µM. It also gave a TGI (IGROV1 ovarian) of 31.3 µM, a TGI (K-562 leukemia) of 34 µM and a TGI (KM12 colon) of 17.5 µM. The TGI (LOX IMVI melanoma) was greater than 28.1 µM, the TGI (M14 melanoma) was greater than 36.6 µM and the TGI (MALME-3M melanoma) was 17.9 µM. For the same compound, the TGI (MCF7 breast) was greater than 45.3 µM, the TGI (MDA-MB-231 breast) was 46.5 µM and the TGI (MDA-MB-435) was greater than 38.4 µM. It also gave a TGI (MDA-N) of 38.1 µM, a TGI (MOLT-4 leukemia) of 11.4 µM and a TGI (NCI-H226 lung) of 21.8 µM. For the same compound, the TGI (NCI-H23 lung) was 25.4 µM, the TGI (NCI-H522 lung) was 21.5 µM and the TGI (NCI/ADR-RES ovarian) was 27.5 µM. It also gave a TGI (OVCAR-3 ovarian) greater than 38.1 µM, a TGI (OVCAR-4 ovarian) greater than 47.7 µM and a TGI (OVCAR-5 ovarian) greater than 42.5 µM. It also gave a TGI (OVCAR-8 ovarian) of 31.2 µM, a TGI (PC-3 prostate) greater than 47.7 µM and a TGI (RPMI-8226 leukemia) greater than 31.2 µM. For the same compound, the TGI (RXF 393 renal) was greater than 47.7 µM, the TGI (SF-268 CNS) was greater than 47.7 µM and the TGI (SF-295 CNS) was greater than 38.1 µM. It also gave a TGI (SF-539 CNS) greater than 47.7 µM, a TGI (SK-MEL-2 melanoma) greater than 31.4 µM and a TGI (SK-MEL-28 melanoma) greater than 31.7 µM. For the same compound, the TGI (SK-MEL-5 melanoma) was 18.3 µM, the TGI (SK-OV-3 ovarian) was greater than 47.7 µM and the TGI (SN12C renal) was greater than 47.7 µM. It also gave a TGI (SNB-19 CNS) greater than 31 µM, a TGI (SNB-75 CNS) greater than 47.7 µM and a TGI (SW-620 colon) greater than 44.7 µM. The TGI (T-47D breast) was 33.7 µM, the TGI (TK-10 renal) was greater than 47.7 µM and the TGI (U251 CNS) was greater than 40.2 µM. The TGI (UACC-257 melanoma) was 28.8 µM, the TGI (UACC-62 melanoma) was 22.4 µM and the TGI (UO-31 renal) was 19.5 µM.
